In patent US5707855A (priority 1996, dated 1998):
Values after ≈ are worked out from the molar mass of the structure shown.

Tests used:
E. cloacae 218R1 [1] = type: cell-based; conditions: 10 μM NPN; fluorescence increase
Source text: (§1) The second assay determined membrane permeability by the ability of 1-N-phenylnaphthylamine (NPN), a small fluorescent probe, to insert itself into the membrane. Normally, very little NPN can penetrate the outer membrane, but in the presence of a membrane permeabilizer it can insert into the hydrophobic membrane resulting in an increase in fluorescence (FIGS. 7 and 8). This N-phenylnaphthylamine uptake assay was previously described by Loh, et al., Antimicrobial Agents and Chemo., 26:546, 1984. Cells were prepared exactly the same as for the lysozyme lysis assay. 1-N-phenylnaphthylamine (NPN) was dissolved in acetone at a concentration of 500 μM. NPN fluorescence was measured in a Perkin-Elmer 650-10S fluorescent spectrophotometer using excitation and emission wavelengths set to 350 nm and 420 nm respectively, with slit widths of 5 nm. The assay was standardized by adding 20 μl of NPN (final concentration of 10 μM) and 10 μl of 0.64 mg/ml of polymyxin B (final concentration of 6.4 μg/ml) into 1 ml of cells, and adjusting the resulting fluorescence to read 90% deflection (90 arbitrary units). Various compounds were tested by adding 10 μl of different concentrations to a cuvette containing 1 ml of cells and 10 μM NPN. Permeabilizing activity was designated as the total fluorescence minus the fluorescence due to NPN alone. Following the fluorescence measurement, the OD600 of the cells was taken to ensure no significant cell lysis had occurred.

P. AERUGINOSA H309 [2] = type: cell-based; conditions: 10 μM NPN; fluorescence increase
Source text: as §1

E. cloacae 218R1 [3] = test: Lysozyme lysis assay (outer membrane permeabilization); type: cell-based; conditions: 50 μg/ml lysozyme; decrease in OD600
Method: (§2) Membrane permeabilization by polycationic compounds was measured in two different assays. The first assay measured membrane disruption by the ability of lysozyme to reach the periplasm and cause cell lysis. […] The uptake of lysozyme into whole cells due to membrane permeabilization by various compounds was previously described in Hancock, et al., Antimicrobial Agents and Chemo., 19:777, 1981. Overnight cultures of P. aeruginosa H309 or E. cloacae 218R1 grown in LB-S were diluted 1 in 50 in fresh medium and grown to an OD600 =0.5-0.6. The cells were harvested in a Silencer H-103N clinical centrifuge at 1800 g for 10 min, washed once with one volume of assay buffer (5 mM HEPES pH 7.2, 5 mM KCN), and resuspended in the same buffer to an OD600 of 0.5. Assays consisted of 600 μl of cells with 50 μg/ml of chicken egg white lysozyme and varying concentrations of cationic compounds. Cell lysis was measured as a decrease in the OD600 in a Perkin-Elmer dual beam spectrophotometer. Parallel experiments performed without lysozyme enabled the measurement of the lytic activity of the compounds themselves. To test whether or not permeability to lysozyme could be inhibited by divalent cations, various concentrations of MgCl2 were added to the assay after the addition of lysozyme and before the addition of the test compound.

P. AERUGINOSA H309 [4] = test: as above; type: cell-based; conditions: 50 μg/ml lysozyme; decrease in OD600
Method: as §2

P. aeruginosa H103 LPS = test: Dansyl polymyxin (DPx) displacement from purified LPS; type: binding; conditions: on a μM basis
Method: In this assay, DPx was incubated with LPS to saturate the binding sites and then, while polycationic compounds are titrated into the reaction, displacement of the DPx was monitored by the decrease in fluorescence (FIG. 9).
The method of Moore, et al., (Antimicrobial Agents and Chemo., 29:496, 1987), was used to test how much DPx was needed to saturate the binding sties on LPS. Briefly, 5 μl samples of 100 μM DPx were titrated sequentially into 1 ml of 3 μg/ml of LPS until a maximum fluorescence was reached. The fluorescence was measured in a Perkin-Elmer 650-10S fluorescence spectrophotometer with an excitation wavelength of 340 nm and an emission wavelength of 485 nm using slit widths of 5 nm. […] For the binding inhibition assays (Moore, et al., Antimicrobial Agents and Chemo., 29:496, 1987), 2.5 μM DPx was added to 3 μg/ml of H103 LPS in 5 mM HEPES pH 7.2. The test compounds were added 5 μl at a time and the decrease in fluorescence due to displacement of the DPx from the LPS was recorded.

[5] = MICs of common antibiotics in the presence of sub-MIC levels of cationic peptides; type: cell-based; conditions: peptide at 1/2 MIC levels
Method: (§3) The minimum inhibitory concentrations of (MIC) of CEME, CEMA and melittin were determined for a number of different bacteria (Table 2). Briefly, cells were grown overnight at 37° C. in LB-S (Luria broth without any salt supplement) and diluted one in 10,000 in the same medium to give concentrations of about 10^4 to 10^5 CFU/ml. The broth dilutions were set up in a 96 well microtiter plate by putting 200 μl of LB-S containing the initial concentration of antibiotic or compound in column 1 and 100 μl of the same medium in columns 2-12. The compounds were diluted by taking 100 μl of broth from column 1 and mixing it with column 2, resulting in a one in two dilution. This was continued to column 10. Finally, 10 μl of bacteria were pipetted into columns 1-11, and the plates incubated overnight at 37° C. The next day the plates were scored for growth in the wells, and the MIC determined.
The ability of the cationic peptides to work synergystically was examined by determining the MIC values for some commonly used antibiotics in the presence of sub-MIC levels of cationic peptides (Table 4). […] This may be due to the high membrane permeabilizing activity of CEMA (see below). However, the peptides did lower the MIC of polymyxin B, possibly due to the fact that they are all taken up by the same pathway and are therefore aiding each other's uptake. Of interest is the influence that melittin has on the MIC of polymyxin B, given the […] membrane permeabilizing activity of melittin.

P. aeruginosa = type: cell-based; conditions: against many bacterial species
Method: as §3

S. typhimurium = type: cell-based; conditions: C590 versus C587
Method: as §3

E. coli = type: cell-based; conditions: strain UB1005, Parent of DC2
Method: as §3

E. cloacae = type: cell-based; conditions: strain 218S, Parent of 218R1
Method: as §3

CC[C@H](C)[C@H](NC(=O)CNC(=O)[C@@H](NC(=O)[C@H](CCCCN)NC(=O)[C@H](CCCCN)NC(=O)[C@H](Cc1ccccc1)NC(=O)[C@H](CC(C)C)NC(=O)[C@H](CCCCN)NC(=O)[C@H](Cc1c[nH]c2ccccc12)NC(=O)[C@@H](N)CCCCN)[C@@H](C)CC)C(=O)NCC(=O)N[C@@H](C)C(=O)N[C@H](C(=O)N[C@@H](CC(C)C)C(=O)N[C@@H](CCCCN)C(=O)N[C@H](C(=O)N[C@@H](CC(C)C)C(=O)N[C@H](C(=O)N[C@H](C(=O)NCC(=O)N[C@@H](CC(C)C)C(=O)N1CCC[C@H]1C(=O)N[C@@H](C)C(=O)N[C@@H](CC(C)C)C(=O)N[C@@H](CCCCN)C(=O)N[C@@H](CC(C)C)C(=O)N[C@H](C(=O)N[C@@H](CCCCN)C(=O)O)[C@@H](C)O)[C@@H](C)O)[C@@H](C)O)C(C)C)C(C)C [CEMA]
Activity in opening up the membrane to NPN (E. cloacae 218R1 [1]): equally active
Activity in opening up the membrane to NPN (P. AERUGINOSA H309 [2]): equally active
Permeabilization of the outer membrane to lysozyme, compared with polymyxin B (E. cloacae 218R1 [3]): stronger permeabilizer for lysozyme than polymyxin B
Permeabilization of the outer membrane to lysozyme, compared with polymyxin B (P. AERUGINOSA H309 [4]): stronger permeabilizer for lysozyme than polymyxin B
Affinity for LPS compared with polymyxin B (P. aeruginosa H103 LPS): higher affinity for LPS than polymyxin B
Reduction of the MICs of ceftazidime, imipenem and tetracycline [5]: 2 fold
Antibiotic activity compared with CEME (P. aeruginosa): two-fold improved antibiotic activity
Sensitivity of defensin sensitive strain C590 relative to parent (MIC change) (S. typhimurium): four-fold more sensitive
MIC (E. coli): 2.8 µg/mL (≈ 0.913 µM)
MIC (E. cloacae): 2.8 µg/mL (≈ 0.913 µM)
